5 molecules from patent publication US20220251187A1, “P2X7 RECEPTOR TARGETED THERAPY” (BIOSCEPTRE (AUST) PTY LTD, priority 2019, published 2022) can be followed below.

Format in all cases: cell-based
The subject of experiment [1] is Kelly cells. Kind of experiment: CellTiter-Blue cell viability assay after chemotherapy. To be noted: increasing doses, 72 hours, FIG. 1C, 1D. The procedure:
(§1) 4,000 cells were seeded in a 96 well plate and allowed to adhere over-night. Cells were then treated with increasing amount of chemotherapy or vehicle control for 72 hours to induce varying amount of cell killing. Cell viability was then measured using CellTiter-Blue Cell Viability Assay form Promega following manufacturer's instruction.
For orientation: Alamar Blue is a resazurin reagent that responds to reducing activity.

Experiment [2] deals with Kelly cells. The experiment in a line: nfP2X7 antibody binding to live cells by flow cytometry after chemotherapy. As to conditions: doxorubicin 0.0625 μM to 0.25 μM or 5 Fu 1 μM to 8 μM, 72 hours, FIG. 2B, 2C. On the procedure: (§2) 500,000 cells were seeded in a 6 well plate and allowed to adhere over-night. Cells were then treated with increasing amount of chemotherapy or vehicle control for 72 hours to induce varying amount of cell killing. The remaining live cells were dissociated in PBS based enzyme-free dissociation buffer, washed and re-suspended in staining buffer (PBS, 2% FCS). Cells were then stained for 1 h with primary antibody raised against non-functional P2X7 (here 2-2-1hFc), washed 3 times in staining buffer prior to a 1 h incubation with fluorescently coupled secondary antibody and 7AAD. Fluorescence staining on live cells was acquired using a BD Accuri flow cytometer and analysed with FlowJo-flow cytometry analysis software. Median fluorescence intensity of the live cell population was analysed using 7AAD live dead staining.

Experiment [3] relates to P2X7 receptor. The experiment in a line: nfP2X7 induction by Condition Media from Doxorubicin treated RPMI-8226 cells with P2X7 inhibitor. To be noted: Condition Media from RPMI-8226 treated with Doxorubicin; FIG. 6b.
The subject of experiment [4] is myeloma RPMI-8226 cell line. Kind of experiment: Ethidium influx in response to BzATP stimulation (P2X7 pore opening). As to conditions: 0.5 mM BzATP, FIG. 1A. On the procedure: Normalised ethidium influx in response to 0.5 mM BzATP stimulation in the myeloma RPMI-8226 and neuroblastoma Kelly cell lines. Mean of three independent experiments is shown.
The test system of experiment [5] is RPMI-8226 cells. Kind of experiment: CellTiter-Blue cell viability assay after chemotherapy. To be noted: increasing doses, 72 hours, FIG. 1B. On the procedure:
as §1

In experiment [6] the test system is RPMI-8226 cells. The experiment in a line: nfP2X7 antibody binding to live cells by flow cytometry after chemotherapy. As to conditions: doxorubicin 0.0625 μM to 0.25 μM, 72 hours, FIG. 2A. The procedure:
as §2
For orientation: In flow cytometry, cells or beads pass a laser one at a time.

Experiment [7] concerns nfP2X7. Kind of experiment: HMGB1-driven increase in nfP2X7. To be noted: FIG. 6a.

Consider `O=c1[nH]cc(F)c(=O)[nH]1` [5 Fu, Fluorouracil], for which the “Effect on cell viability (CTB assay)” value in experiment [1] is recorded as “cell death”. In addition, the “Effect on nfP2X7 antibody binding to live cells” value in experiment [2] is recorded as “increased nfPX7 antibody binding”.

For `COc1ccc(CC(=O)NC(N=C(NC#N)Nc2cccc3ncccc23)C(C)(C)C)cc1OC` (stereo not drawn) [A 740003, N-[1-[[(Cyanoamino)(5-quinolinylamino)methylene]amino]-2,2-dimethylpropyl]-3,4-dimethoxybenzeneacetamide], the “Block of conditioned media induced nfP2X7 induction” value in experiment [3] is reported as “does not block”.

Consider `Nc1ncnc2c1ncn2[C@@H]1O[C@H](COP(=O)(O)OP(=O)(O)OP(=O)(O)O)[C@@H](OC(=O)c2ccc(C(=O)c3ccccc3)cc2)[C@H]1O` [BzATP], for which the “P2X7 pore opening (normalised ethidium influx)” value in experiment [4] is listed as “able to open the P2X7 pore”.

`COc1cccc2c1C(=O)c1c(O)c3c(c(O)c1C2=O)C[C@@](O)(C(=O)CO)C[C@@H]3O[C@H]1C[C@H](N)[C@H](O)[C@H](C)O1` [Doxorubicin]: the “Effect on cell viability (CTB assay)” value in experiment [1] and in experiment [5] was “cell death” throughout. Besides, the “Effect on nfP2X7 antibody binding to live cells” value in experiment [2] and in experiment [6] was “increased nfPX7 antibody binding” each time.

B1: HMGB1: DAMP released by chemo- and radio-therapy (protein, UniProt P09429 1-215, looked up)
High mobility group protein B1: MGKGDPKKPRGKMSSYAFFVQTCREEHKKKHPDASVNFSEFSKKCSERWKTMSAKEKGKFEDMAKADKARYEREMKTYIPPKGETKKKFKDPNAPKRPPSAFFLFCSEYRPKIKGEHPGLSIGDVAKKLGEMWNNTAADDKQPYEKKAAKLKEKYEKDIAAYRAKGKPDAAKKGVVKAEKSKKKKEEEEDEEDEEDEEEEEDEEDEDEEEDDDDE
Consider B1, for which the “Effect on nfP2X7 level” value in experiment [7] is on record as “drives the increase in nfP2X7”.
